Results as given in patent US5235036A, “CRF analogs” (The Salk Institute for Biological Studies, priority 1991, dated 1993).
“Also recorded” adds a separate entry of the source. Like-named read-outs stand apart in the source and are kept apart here. Where a SMILES comes first, the peptide text is derived from it. Where no end group is shown, it is not given here. [ ]: non-standard residue; d: D form.

Columns and labels:
[1] = test system: secretion of ACTH and β-END-LI; assay: in vivo testing: stimulation of the secretion of ACTH and β-END-LI; settings: test system not stated in the example
Description: (§1) The synthetic peptides [Ala^20 ]-oCRF and [Ala^39 ]-oCRF are examined for their effects on the secretion of ACTH and β-endorphin in vitro and also in vivo. The potency of synthetic oCRF analogs to stimulate the secretion of ACTH and β-endorphin by cultured rat pituitary cells is measured using the procedure as generally set forth in Endocrinology, 91, 562 (1972) and compared against synthetic oCRF. [Ala^20 ]-oCRF is considered to be about 2 to 4 times as potent as the native hormone. […] In vivo testing which can be carried out using the general procedure set forth in C. Rivier et al., Science.

[2] = lowering of blood pressure when injected peripherally; format: in vivo; settings: e.g. intravenously
[3] = background statement; mammals; cited from earlier work
[4] = test system: ACTH and β-endorphin-like activities (β-END-LI); settings: in vitro and in vivo; background statement; cited from earlier work
[5] = test system: cultured rat pituitary cells; assay: secretion of ACTH and β-endorphin by cultured rat pituitary cells, compared against synthetic oCRF; format: cell-based
Description: as §1

gastric acid production = settings: background statement; cited from earlier work

Molecule	biopotency / stimulation of the secretion of ACTH and β-END-LI [1]	lowering of blood pressure [2]	lowering of blood pressure [3]	stimulation of ACTH and β-endorphin secretion / β-END-LI [4]	further results
CC[C@H](C)[C@H](NC(=O)[C@@H](NC(=O)[C@H](CCC(=O)O)NC(=O)[C@H](CCSC)NC(=O)[C@H](CC(C)C)NC(=O)[C@H](CCCCN)NC(=O)[C@H](CCCNC(=N)N)NC(=O)[C@H](CC(N)=O)NC(=O)[C@H](CO)NC(=O)[C@H](Cc1c[nH]cn1)NC(=O)[C@H](C)NC(=O)[C@H](CCC(N)=O)NC(=O)[C@H](CCC(N)=O)NC(=O)[C@H](C)NC(=O)[C@H](CC(C)C)NC(=O)[C@H](CCC(N)=O)NC(=O)[C@H](CCC(=O)O)NC(=O)[C@H](C)NC(=O)[C@H](CCCNC(=N)N)NC(=O)[C@H](C)NC(=O)[C@H](CCSC)NC(=O)[C@H](C)NC(=O)[C@H](CC(C)C)NC(=O)[C@@H](NC(=O)[C@H](CCC(=O)O)NC(=O)[C@H](CCCNC(=N)N)NC(=O)[C@H](CC(C)C)NC(=O)[C@H](CC(C)C)NC(=O)[C@H](Cc1c[nH]cn1)NC(=O)[C@@H](Cc1ccccc1)NC(=O)[C@@H](NC(=O)[C@H](CC(C)C)NC(=O)[C@H](CC(=O)O)NC(=O)[C@H](CC(C)C)NC(=O)[C@H](CO)NC(=O)[C@@H](NC(=O)[C@@H]1CCCN1C(=O)[C@@H]1CCCN1C(=O)[C@@H](N)CCC(=O)O)[C@@H](C)CC)[C@@H](C)O)C(C)C)[C@@H](C)CC)C(N)=O [[D-Phe^12, Ala^20]-rCRF(3-41)] (H-EPPISLDLT[dF]HLLREVLAMARAEQLAQQAHSNRKLMEII-NH2)	biopotent	causes significant lowering of blood pressure			
SEEPPISLDLTFHLLREVLAMARAEQLAQQAHSNRKLMEII [[Ala^20]-rCRF]	biopotent and stimulates the secretion of ACTH and β-END-LI	causes significant lowering of blood pressure			
SEEPPISLDLTFHLLREVLEMARAEQLAQQAHSNRKLMAII [[Ala^39 -rCRF]	biopotent, stimulates the secretion of ACTH and β-END-LI	causes significant lowering of blood pressure			
SQEPPISLDLTFHLLREMLEMAKAEQEAEQAALNRLLLEEA [AHC]			substantially lower blood pressure	stimulate ACTH and β-endorphin-like activities (β-END-LI) in vitro and in vivo	
SQEPPISLDLTFHLLREVLAMTKADQLAQQAHSNRKLLAIA [[Ala^20,29]-oCRF]	biopotent	lowers blood pressure			
SQEPPISLDLTFHLLREVLAMTKADQLAQQAHSNRKLLDIA [[Ala^20]-oCRF]		a significant lowering of blood pressure			
SQEPPISLDLTFHLLREVLEMTKADQLAQQAHSNRKLLAIA [[Ala^39]-oCRF]		a significant lowering of blood pressure			increase in biopotency in vitro over the native hormone [5]: ~85%
Ser-Gln-Glu-Pro-Pro-Ile-Ser-Leu-Asp-Leu-Thr-Phe-His-Leu-Leu-Arg-Glu-Val-Leu-Glu-Met-Thr-Lys-Ala-Asp-Gln-Leu-Ala-Gln-Gln-Ala-His-Ser-Asn-Arg Lys-Leu-Leu-Asp-Ile-Ala (SQEPPISLDLTFHLLREVLEMTKADQLAQQAHSNRKLLDIA) [oCRF]			lowers blood pressure in mammals; also recorded: substantially lower blood pressure	stimulates the secretion of ACTH and β-endorphin; also recorded: stimulate ACTH and β-endorphin-like activities (β-END-LI) in vitro and in vivo	gastric acid production (gastric acid production): inhibits gastric acid production
Ser-Glu-Glu-Pro-Pro-Ile-Ser-Leu-Asp-Leu-Thr-Phe-His-Leu-Leu-Arg-Glu-Val-Leu-Glu-Met-Ala-Arg-Ala-Glu-Gln-Leu-Ala-Gln-Gln-Ala-His-Ser-Asn-Arg -Lys-Leu-Met-Glu-Ile-Ile (SEEPPISLDLTFHLLREVLEMARAEQLAQQAHSNRKLMEII) [rCRF]			substantially lower blood pressure	stimulate ACTH and β-endorphin-like activities (β-END-LI) in vitro and in vivo	
